Reference: US20220064167A1, “IMIDAZO-PYRAZOLE CARBOXAMIDE DERIVATIVES AS ANTICANCER AGENTS AND THE SYNTHESIS THEREOF” (AVIDIN KFT., priority 2018, published 2022)

Tests used:
[1] = test system: human primary fibroblast; assay: viability assay (Table 3); format: cell-based; settings: 6000 cells/well, 10 μM-0.2 nM
Experimental: (§1) For viability assays cells were seeded in 96 well plates (MCF7 and 4T1: 6000, HL60: 120.000 cells/well) and incubated overnight. Compounds were dissolved in dimethyl sulfoxide (DMSO). Cells were treated with an increasing concentration of compounds having the general formula (I.) (156 nM-100 μM). Cell viability was determined after 72h incubation. Resazurin reagent (Sigma-Aldrich) was dissolved in PBS (pH 7.4) at 0.15 mg/ml concentration, sterile filtered (0.22 μm, Merck Millipore) and aliquoted at −20° C. Resazurin reagent (Sigma-Aldrich) was added at a final concentration of 25 μg/ml. After 2 hours incubation at 37° C. 5% CO2 fluorescence (530 nm excitation/580 nm emission) was recorded on a multimode microplate reader (Cytofluor4000, PerSeptive Biosytems). Viability was calculated with relation to untreated control cells and blank wells containing media without cells. IC50 values (50% inhibiting concentration) were calculated by GraphPad Prism® 5 (La Jolla, Calif., USA).
Human primary fibroblasts were obtained from the skin by enzymatic digestion according to a standard protocol. Fibroblasts were grown in low glucose DMEM/F12 medium containing 15% FCS, 1% antibiotic/antimycotic (PAA, Pasching, Austria) and 1% L-glutamine solution (PAA). Fibroblasts were cultured at 37° C. and 5% CO2 in humidified conditions. […]

[2] = test system: K-562 (erythroleukemia); assay: viability assay (Table 3); format: cell-based; settings: Homo sapiens, K562; 20000 cells/well, 10 μM-0.2 nM
Experimental: as §1
(§2) Cancer cell lines were purchased from the American Type Culture Collection (ATCC, Manassas, Va., USA). HT29 (human colorectal adenocarcinoma), HL-60 (acute promyelocytic leukemia), THP-1 (acute monocytic leukemia), MOLT-4 (acute T-lymphoblastic leukemia), MV-4-11 (biphenotypic B myelomonocytic leukemia) and K-562 (erythroleukemia) cells were maintained in Roswell Park Memorial Institute 1640 medium (RPMI-1640) with 10% FCS. Media were supplemented with 2 mM GlutaMAX, and 100 U/mL penicillin, 100 μg/mL streptomycin (Life Technologies, Carlsbad, Calif., USA). Cell cultures were maintained at 37° C. in a humidified incubator in an atmosphere of 5% CO2 (Sanyo, Japan).
(§3) Viability assays were performed as described in Example 102 with minor modification for cell density and tested concentration range. Applied cell densities: in case of human primary fibroblast 6000, for HT29 4000, for HL-60, MOLT-4, MV-4-11, THP-1, K-562 20000 cells/well. Applied compound concentration range: 10 μM-0.2 nM.

[3] = test system: MOLT-4 (acute T-lymphoblastic leukemia); assay: viability assay (Table 3); format: cell-based; settings: Homo sapiens, 20000 cells/well, 10 μM-0.2 nM
Experimental: as §1, §2, §3

[4] = test system: HL-60 (acute promyelocytic leukemia); assay: viability assay (Table 3); format: cell-based; settings: Homo sapiens, 20000 cells/well, 10 μM-0.2 nM
Experimental: as §1, §2, §3

[5] = test system: HT29 (human colorectal adenocarcinoma); assay: viability assay (Table 3); format: cell-based; settings: HT-29, 4000 cells/well, 10 μM-0.2 nM
Experimental: as §1, §2, §3

[6] = test system: THP-1 (acute monocytic leukemia); assay: viability assay (Table 3); format: cell-based; settings: Homo sapiens, 20000 cells/well, 10 μM-0.2 nM
Experimental: as §1, §2, §3

[7] = test system: MV-4-11 (biphenotypic B myelomonocytic leukemia); assay: viability assay (Table 3); format: cell-based; settings: Homo sapiens, MV4-11; 20000 cells/well, 10 μM-0.2 nM
Experimental: as §1, §2, §3

[8] = test system: human promyelocytic leukemia, HL-60 cells; assay: resazurin viability assay, 72 h (Table 1); format: cell-based; settings: 72h incubation, 156 nM-100 μM
Description: (§4) In our experiments three different cell lines were used. Cells were purchased from the American Type Culture Collection (ATCC, Manassas, Va., USA). The human breast adenocarcinoma cell line, MCF-7 cells were maintained in Dulbecco's Modified Eagle Medium/Nutrient Mixture F-12 (DMEM/F12) 10% fetal calf serum (FCS, Gibco) and mouse mammary carcinoma 4T1 and human promyelocytic leukemia, HL-60 cells were maintained in Roswell Park Memorial Institute 1640 medium (RPMI-1640) 10% FCS. Media were supplemented with 2 mM GlutaMAX, and 100 U/mL penicillin, 100 μg/mL streptomycin (Life Technologies, Carlsbad, Calif., USA). Cell cultures were maintained at 37° C. in a humidified incubator in an atmosphere of 5% CO2 (Sanyo, Japan).
as §1

[9] = test system: human breast adenocarcinoma cell line, MCF-7; assay: resazurin viability assay, 72 h (Table 1); format: cell-based; settings: MCF7, 72h incubation, 156 nM-100 μM
Description: as §4, §1

[10] = test system: mouse mammary carcinoma 4T1; assay: resazurin viability assay, 72 h (Table 1); format: cell-based; settings: 72h incubation, 156 nM-100 μM
Description: as §4, §1

[11] = test system: HL-60 cells; assay: resazurin viability assay, Example 103 (FIG. 1); format: cell-based; settings: Homo sapiens, 72 h incubation, 20.000 cells/well, read-out: half-inhibitory concentration (IC50) on viability of HL-60 cells
Experimental: The human primary fibroblasts (6000 cells/well) and Hl60 cells (20.000 cells/well) were seeded into 96-well plates (Corning Life Sciences) in media. Fibroblasts were cultured overnight before treatment. Effects of compounds described in Example 22, 60 and 83 were examined in concentrations of 1 μM, 250 nM, 62.5 nM, 15.6 nM, 3.9 nM and 0.9 nM in 100 μl after 72 h incubation. Resazurin reagent was prepared and used as described in Example 1.
(§5) Viability was calculated with relation to untreated control cells and blank wells containing media without cells. IC50 values (50% inhibiting concentration) were calculated by GraphPad Prism® 5.

[12] = test system: human primary fibroblasts; assay: resazurin viability assay on primary fibroblasts, Example 103 (FIG. 1); format: cell-based; settings: 72 h incubation, applied concentration range 1.6 nM-5 μM
Description: To obtain primary human fibroblasts healthy volunteers (age 18-60 years) were enrolled into the study. The punch biopsies were taken from healthy subjects from the breast area undergoing plastic surgery. Primary fibroblasts were obtained from the skin by enzymatic digestion according to a standard protocol. Skin specimens were first washed in Salsol A solution (Human Rt, Gödöllö, Hungary) supplemented with 2% antibiotic/antimycotic solution (Sigma-Aldrich). Skin samples were then cut into narrow strips and incubated in Dispase solution (Roche Diagnostics, Mannheim, Germany) overnight at 4° C. The epidermis was subsequently separated from the dermis. Fibroblasts were obtained by incubating the dermis in Digestion Mix solution (Collagenase, Hyaluronidase and Deoxyribonuclease) for 2h at 37° C. Cell suspensions were filtered through a 100 μm nylon mesh (BD Falcon, San Jose, Calif., USA) and cells were pelleted by centrifugation. Fibroblasts were grown in low glucose DMEM medium containing 5% FBS, 1% antibiotic/antimycotic (PAA, Pasching, Austria) and 1% L-glutamine solution (PAA). Fibroblasts were cultured at 37° C. and 5% CO2 in humidified conditions. Depending on the cell growth, the medium was changed every 2-4 days and cells were passaged at 80% of confluence.
The human primary fibroblasts (6000 cells/well) and Hl60 cells (20.000 cells/well) were seeded into 96-well plates (Corning Life Sciences) in media. Fibroblasts were cultured overnight before treatment. […] Resazurin reagent was prepared and used as described in Example 1.
as §5

[13] = test system: GBM2 (human glioblastoma); assay: viability assay (Table 2); format: cell-based
Experimental: as §1
(§6) GBM2 (human glioblastoma), HeLa (human cervical carcinoma), MIA PaCa-2 (human pancreas carcinoma) and U87MG (human glioblastoma) cells were maintained in Dulbecco's Modified Eagle Medium (DMEM) 10% fetal calf serum (FCS, Gibco). A375 (human melanoma), A549 (human lung adenocarcinoma) and HEP3B (human hepatoma) cells were maintained in Dulbecco's Modified Eagle Medium/Nutrient Mixture F-12 (DMEM/F12) 10% FCS.
(§7) Media were supplemented with 2 mM GlutaMAX, and 100 U/mL penicillin, 100 μg/mL streptomycin (Life Technologies, Carlsbad, Calif., USA). Cell cultures were maintained at 37° C. in a humidified incubator in an atmosphere of 5% CO2 (Sanyo, Japan).
(§8) Viability assays were performed as described in Example 102.

[14] = test system: A375 (human melanoma); assay: viability assay (Table 2); format: cell-based; settings: A-375
Experimental: as §1, §6, §7, §8

[15] = test system: HT168 (human melanoma); assay: viability assay (Table 2); format: cell-based
Experimental: as §1
HT168 (human melanoma), HT199 (human melanoma), HT29 (human colorectal adenocarcinoma), MOLT4 (human leukemia) and U937 (human lymphoma) cells were maintained in Roswell Park Memorial Institute 1640 medium (RPMI-1640) 10% FCS. SKOV-3 cells were maintained in Dulbecco's Modified Eagle Medium/McCoy's medium (DMEM/McCoy) 10% FCS.
as §7, §8

| SMILES | IC50 [1] [nM] | IC50 [2] [nM] | IC50 [3] [nM] | IC50 [4] [nM] | IC50 [5] [nM] | IC50 [6] [nM] | IC50 [7] [nM] | IC50 [8] [nM] | IC50 [9] [nM] | IC50 [10] [nM] | melting point [°C] | IC50 [11] [nM] | decrease in viability of human primary fibroblasts [12] | IC50 [13] [nM] | IC50 [14] [nM] | IC50 [15] [nM] |
| --- | --- | --- | --- | --- | --- | --- | --- | --- | --- | --- | --- | --- | --- | --- | --- | --- |
| CC(C)(C)Nc1c(C(C)(C)C)[nH]c2c(C(=O)Nc3ccc(O)cc3)cnn12 [Example 90, 2-(Tert-butyl)-3-(tert-butylamino)-N-(4-hydroxyphenyl)-1H-imidazo[1,2-b]pyrazole-7-carboxamide] | > 3000 | 54.3 | 27.2 | 16.5 | 9.97 | 25.9 | 32.2 |  |  |  |  |  |  |  |  |  |
| CC(C)(C)CC(C)(C)Nc1c(C(C)(C)C)[nH]c2c(C(N)=O)cnn12 [Example 22, 2-(Tert-butyl)-3-((2,4,4-trimethylpentan-2-yl)amino)-1H-imidazo[1,2-b]pyrazole-7-carbox-amide] |  |  |  |  |  |  |  | 1240 | 1490 | 1880 | 155 to 156 | 940 | Significant decrease in viability was not apparent | 5000 | 2000 | 3000 |
| CCc1[nH]c2c(C(N)=O)cnn2c1NC(C)(C)CC(C)(C)C [Example 24, 2-Ethyl-3-((2,4,4-trimethylpentan-2-yl)amino)-1H-imidazo[1,2-b]pyrazole-7-carboxamide] |  |  |  |  |  |  |  | 27900 | > 50000 | > 50000 | 207 to 209 |  |  |  |  |  |
